Assay results from patent US20060217321A1, “Compositions to improve tic disorders” (priority 2005, published 2006).
Residues, ends and D or L forms follow the SMILES beside them.

Experiments:
tic disorders [1] = experiment: Test Case 1: a case with improved tic disorder; type: in vivo, human; conditions: for effect of earlier drug therapy on tic symptoms (history): patient history before theanine
Excerpt: <Test Case 1> A Case with Improved Tic Disorder
Patient: (Sixth grade elementary school student);
Chief complaint: shaking hands and head
History: Since being elected as temporary class representative of the fourth grade class of elementary school, the patient had blinking eyes and subsequently shook their face and shoulders; thus, they visited a nearby hospital and received diazepam. […] In the following year, around the time of moving to Osaka, the patient suffered a relapse of symptoms of shaking their face and shoulders again and thus visited the pediatric department of O hospital and received haloperidol.

Tourette's disorder = experiment: Test Case 2: a case with improved Tourette's disorder; type: in vivo, human
Excerpt: <Test Case 2> A Case with Improved Tourette's Disorder
Patient: child; body weight: 43 kg
The tics were milder when they were in school or with others, and were more frequently observed in the presence of only their family. (in the third semester of the sixth grade), they visited our clinic worrying about bullying at their junior high school. […] In addition, the patient continuously moved their hands and legs and tended to be restlessly absent-mindedly hyperactive.
Psychosocial case history: The patient was always crying due to inherent sensitivity; thus, their parent felt anxious about child-rearing. They were severely afraid of strangers and timid, and often cried for fear. […] They often cut into others' conversation and was too talkative. Their parent can get along with their younger sibling casually, but is feeling awkwardness and pain with the patient due to the lack of closeness. Their parent is not nagging so much, and seems to accept the patient. Clinical course: The patient was diagnosed as having Tourette's disorder, and the disease was explained to their parents. To alleviate the symptoms, haloperidol (trade name: Serenase (trademark); Dainippon Pharmaceutical Co. Ltd.) was used.
The administration of theanine is scheduled to be continued until the end of puberty. The patient has joined their junior high school track club, and has tics, although unnoticeable. The patient has become a bit disobedient and often falls silent, but is highly motivated with study.

mice = type: in vivo; conditions: oral administration of 5 g/kg
tic disorders [2] = experiment: Test Case 3: a case with improved tic disorder; type: in vivo, human; conditions: patient; 0.8 g theanyl-theanine daily for 30 days
Excerpt: <Test Case 3> A Case with Improved Tic Disorder
Patient: child; height 121 cm; body weight 20 kg
Chief complaint: repetitive guttural
They were diagnosed as having tics.
The parent disciplined the child by scolding. They were pressed with child-rearing and housework and had little free time; thus, they were always nagging due to frustration. In July 1990, the patient developed involuntary movements of shaking their shoulders up and down, and in addition, repetitive guttural. In Sep. 6, 1990, the patient first visited the clinic. The affected child was thin with abdominal palpitation and spasms of the musculus rectus abdominis. Since October, the patient received 8 tablets combined with theanyl-theanine in example 5 (0.8 g theanyl-theanine) daily for 30 days.

O=C(CCCN1CCC(O)(c2ccc(Cl)cc2)CC1)c1ccc(F)cc1 [haloperidol]
adverse effects of earlier drug therapy (history) (tic disorders [1]; patient, increased dosage, patient history): speech defect | effect of earlier drug therapy on tic symptoms (history) (tic disorders [1]; patient): insufficient effect | adverse effects of earlier drug therapy (Tourette's disorder; patient, 0.25 mg to 0.5 mg): drowsiness was caused as an adverse effect | symptoms of Tourette's disorder under earlier drug therapy (Tourette's disorder; patient, dosage gradually increased from 0.25 mg to 0.5 mg): alleviated the symptoms such as tics and restlessness

CCNC(=O)CC[C@H](N)C(=O)O [theanine, L-theanine]
death or abnormality in general conditions and body weight (mice): neither death nor abnormality in general conditions and body weight was observed | adverse effects (tic disorders [1]; in vivo): no adverse effects | adverse effects (Tourette's disorder; in vivo): no adverse effects

CCNC(=O)CC[C@H](NC(=O)[C@@H](N)CCC(=O)NCC)C(=O)O [theanyl-theanine] (H-Glu(NHEt)-Glu(NHEt)-OH)
adverse effects (tic disorders [2]): no adverse effects

CN1C(=O)CN=C(c2ccccc2)c2cc(Cl)ccc21 [diazepam]
effect of earlier drug therapy on tic symptoms (history) (tic disorders [1]; patient): no effect
